Values joined by “and” are separate entries in the source; they are usually repeats but may differ in a detail not shown here. Identical values can stand only once.
Test system: MDA-MB-231 complex spheroids, growth inhibition
Experiment: Anticancer human tumor MDA-MB-231 cell line growth inhibition [Asc];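 note: spheroids exposed to compounds for 7 days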
Settings: for viability, T/C: stronger effect = lower value
Procedure, shortened: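 Complex spheroids combining tumor cells with HUVEC endothelial cells and human MSCs, at 37 degrees C, 5% CO2; agents tested alone or combined, half-log dilutions from at or near clinical Cmax, or 10 microM if Cmax unknown.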

With CCN1C(C(=O)NC23CCC(C(=O)O)(CC2)CC3)C(c2cccc(Cl)c2F)C2(C(=O)Nc3cc(Cl)ccc32)C12CCCCC2 (centres undefined) + CNC(C)C(=O)NC1CN(S(=O)(=O)c2cccc(S(=O)(=O)N3CCC4CCC(C(=O)NC(c5ccccc5)c5ccccc5)N4C(=O)C(NC(=O)C(C)NC)C3)c2)CCC2CCC(C(=O)NC(c3ccccc3)c3ccccc3)N2C1=O as the molecule, how does the IC50 (curve of first compound, second compound 0.01 µM) read?
The IC50 was less than 9.49 nM.

And the IC50 (curve of first compound, second compound 0.0316 µM)?
Its IC50 is less than 9.49 nM.

And the IC50 (curve of first compound, second compound 0.1 µM)?
Its IC50 is less than 9.49 nM.

And the IC50 (curve of first compound, second compound 0.316 µM)?
Its IC50 is less than 9.49 nM.

And the IC50 (curve of first compound, second compound 1 µM)?
Its IC50 is less than 9.49 nM.

What about the viability, T/C (second compound 0.01 µM, first compound 0.00949 µM) of the same molecule?
The viability, T/C was 2.02%.

What about the viability, T/C (second compound 0.01 µM, first compound 0.03 µM) of the same molecule?
The viability, T/C was 2.75%.

What about the viability, T/C (second compound 0.01 µM, first compound 0.0949 µM) of the same molecule?
Its viability, T/C is 1.79%.

What about the viability, T/C (second compound 0.01 µM, first compound 0.3 µM) of the same molecule?
Its viability, T/C is 1.37%.

What about the viability, T/C (second compound 0.01 µM, first compound 0.949 µM) of the same molecule?
Its viability, T/C is 2.73%.

What about the viability, T/C (second compound 0.01 µM, first compound 3 µM) of the same molecule?
The viability, T/C was 2.05%.

What about the viability, T/C (second compound 0.0316 µM, first compound 0.00949 µM) of the same molecule?
Its viability, T/C is 1.54%.

What about the viability, T/C (second compound 0.0316 µM, first compound 0.03 µM) of the same molecule?
Its viability, T/C is 2.84%.

What about the viability, T/C (second compound 0.0316 µM, first compound 0.0949 µM) of the same molecule?
Its viability, T/C is 1.94%.

What about the viability, T/C (second compound 0.0316 µM, first compound 0.3 µM) of the same molecule?
The viability, T/C was 0.92%.

And the viability, T/C (second compound 0.0316 µM, first compound 0.949 µM)?
The viability, T/C was 1.76%.

What about the viability, T/C (second compound 0.0316 µM, first compound 3 µM) of the same molecule?
The viability, T/C was 1.43%.

And the viability, T/C (second compound 0.1 µM, first compound 0.00949 µM)?
The viability, T/C was 1.27%.

What about the viability, T/C (second compound 0.1 µM, first compound 0.03 µM) of the same molecule?
The viability, T/C was 1.6%.

What about the viability, T/C (second compound 0.1 µM, first compound 0.0949 µM) of the same molecule?
The viability, T/C was 1.85%.

What about the viability, T/C (second compound 0.1 µM, first compound 0.3 µM) of the same molecule?
The viability, T/C was 0.87%.

And the viability, T/C (second compound 0.1 µM, first compound 0.949 µM)?
The viability, T/C was 1.78%.

And the viability, T/C (second compound 0.1 µM, first compound 3 µM)?
Its viability, T/C is 2.03%.

And the viability, T/C (second compound 0.316 µM, first compound 0.00949 µM)?
Its viability, T/C is 0.92%.

And the viability, T/C (second compound 0.316 µM, first compound 0.03 µM)?
Its viability, T/C is 2.14%.

And the viability, T/C (second compound 0.316 µM, first compound 0.0949 µM)?
The viability, T/C was 1.07%.

What about the viability, T/C (second compound 0.316 µM, first compound 0.3 µM) of the same molecule?
The viability, T/C was 0.78%.

What about the viability, T/C (second compound 0.316 µM, first compound 0.949 µM) of the same molecule?
Its viability, T/C is 1.14%.

What about the viability, T/C (second compound 0.316 µM, first compound 3 µM) of the same molecule?
Its viability, T/C is 1.24%.

What about the viability, T/C (second compound 1 µM, first compound 0.00949 µM) of the same molecule?
Its viability, T/C is 1.09%.

What about the viability, T/C (second compound 1 µM, first compound 0.03 µM) of the same molecule?
The viability, T/C was 0.9%.

And the viability, T/C (second compound 1 µM, first compound 0.0949 µM)?
The viability, T/C was 0.88%.

And the viability, T/C (second compound 1 µM, first compound 0.3 µM)?
The viability, T/C was 2.3%.

And the viability, T/C (second compound 1 µM, first compound 0.949 µM)?
Its viability, T/C is 0.81%.

What about the viability, T/C (second compound 1 µM, first compound 3 µM) of the same molecule?
Its viability, T/C is 0.71%.

Which viability, T/C (compound 0.0316 µM) does the source give for C#Cc1c(F)ccc2cc(O)cc(-c3ncc4c(N5CC6CCC(C5)N6)nc(OCC56CCCN5CC(F)C6)nc4c3F)c12 (centres undefined) here?
The viability, T/C was 120% and 100% and 106%.

And the viability, T/C (compound 0.1 µM)?
Its viability, T/C is 95.9% and 97.5% and 97.1%.

And the viability, T/C (compound 0.316 µM)?
Its viability, T/C is 111% and 98.8% and 91.7%.

What about the viability, T/C (compound 1 µM) of the same molecule?
Its viability, T/C is 66.2% and 72.6% and 72.7%.

And the viability, T/C (compound 3.16 µM)?
Its viability, T/C is 48.7% and 64.1% and 62.1%.

And the viability, T/C (compound 10 µM)?
Its viability, T/C is 35.2% and 51.7% and 50.2%.

And the IC50 (curve of compound)?
Its IC50 is 2170 nM and > 10000 nM.

Which results are given for Cc1nc(N2CCC3(CC2)COC(C)C3N)c(CO)nc1Sc1ccnc(N)c1Cl (centres undefined)?
viability, T/C (compound 0.00949 µM): 122% and 98.3% and 98%; viability, T/C (compound 0.03 µM): 117% and 93.5% and 101%; viability, T/C (compound 0.0949 µM): 111% and 94.2% and 94.4%; viability, T/C (compound 0.3 µM): 63.3% and 47.9% and 61.2%; viability, T/C (compound 0.949 µM): 3.21% and 2.3% and 2.69%; viability, T/C (compound 3 µM): 0.89% and 1.08% and 0.76%; IC50 (curve of compound): 386 nM and 285 nM and 373 nM

Source: PubChem BioAssay AID1963443 (Molecular Pharmacology Branch, DTP, NCI, 2024)
